Measured values reported in article PMC3017127, “Survey of Tyrosine Kinase Signaling Reveals ROS Kinase Fusions in Human Cholangiocarcinoma” (PLoS ONE, 2011).

Legend:
NPM-ALK = test system: T1, NPM-ALK; assay: Karpas-299 cell viability (CellTiter […] AQueous One, MTS); format: cell-based; conditions: 72 h; growth read-out of human lymphoma cells with endogenous fusion; control line
T1 construct: endogenous NPM-ALK fusion in Karpas-299 cells; with Nucleophosmin

FIG-ROS(S) = test system: T2, FIG-ROS(S); assay: BaF3 cell viability (CellTiter […] AQueous One, MTS), IL-3-independent growth; format: cell-based, Mus musculus; conditions: 72 h; growth read-out of cells depending on the fusion kinase; ROS phosphorylation read by Western blot in a separate 3 h test
T2 construct: gene ROS1; C-terminal Myc tag; MSCV-Neo in murine BaF3 cells; with Golgi-associated PDZ and coiled-coil motif-containing protein

FIG-ROS(L) = test system: T3, FIG-ROS(L); assay: as above; format: cell-based, Mus musculus; conditions: 72 h; growth read-out of cells depending on the fusion kinase; ROS phosphorylation read by Western blot in a separate 3 h test
T3 construct: gene ROS1; C-terminal Myc tag; MSCV-Neo in murine BaF3 cells; with Golgi-associated PDZ and coiled-coil motif-containing protein

- IC50 (FIG-ROS(S)): 10 nM
- IC50 (FIG-ROS(L)): 1.8 nM
Compound: COc1cc(N2CCC(N3CCN(C)CC3)CC2)ccc1Nc1ncc(Cl)c(Nc2ccccc2S(=O)(=O)C(C)C)n1 [TAE684]
